Measured values as given in ChEMBL document CHEMBL3044994, “Synthesis and evaluation of novel carbamate-substituted flavanone derivatives as potent acetylcholinesterase inhibitors and anti-amnestic agents” (Med Chem Res, 2013).
Activity calls are given as the source filed them. The rule behind the calls is not given here.

Columns and labels:
Acetylcholinesterase = target: T1, Acetylcholinesterase (Rattus norvegicus, UniProt P37136); assay: Inhibition of AchE in Rattus norvegicus (rat) cortex homogenates by Ellman's method
T1 sequence (P37136 whole entry): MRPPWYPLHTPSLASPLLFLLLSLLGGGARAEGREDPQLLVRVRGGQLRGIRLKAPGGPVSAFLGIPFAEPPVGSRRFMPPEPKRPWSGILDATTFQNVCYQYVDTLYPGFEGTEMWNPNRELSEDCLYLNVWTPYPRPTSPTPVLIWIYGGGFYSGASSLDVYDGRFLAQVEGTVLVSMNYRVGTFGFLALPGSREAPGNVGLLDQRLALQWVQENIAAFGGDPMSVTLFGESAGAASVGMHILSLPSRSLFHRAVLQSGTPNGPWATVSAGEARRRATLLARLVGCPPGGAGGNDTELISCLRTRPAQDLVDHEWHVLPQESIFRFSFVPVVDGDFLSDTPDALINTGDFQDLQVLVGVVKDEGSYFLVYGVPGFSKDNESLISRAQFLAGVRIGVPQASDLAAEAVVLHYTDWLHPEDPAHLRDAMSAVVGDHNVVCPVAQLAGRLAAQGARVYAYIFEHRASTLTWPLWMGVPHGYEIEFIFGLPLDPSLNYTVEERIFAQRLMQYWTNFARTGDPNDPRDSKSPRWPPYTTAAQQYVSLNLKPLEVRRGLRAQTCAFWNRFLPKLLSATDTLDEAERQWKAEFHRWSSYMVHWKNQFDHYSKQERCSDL

Mus musculus [1] = assay: (§1) Antiamnestic activity in scopolamine-induced Swiss albino Mus musculus (mouse) memory deficit model assessed as increase in time spent in target quadrant at 25 mg/kg, ip administered 30 min prior to scopolamine challenge measured on day 5 by Morris water maze test relative to vehicle-treated control; assay type: functional, organism-based; set-up: dose 25 mg/kg
Mus musculus [2] = assay: Antiamnestic activity in scopolamine-induced Swiss albino Mus musculus (mouse) memory deficit model assessed as escape latency time at 5 mg/kg, ip administered 30 min prior to scopolamine challenge measured on day 1 by Morris water maze test (reference value: 89.7 +/- 3.8 secs); assay type: functional; settings: route intraperitoneal
Mus musculus [3] = assay: Antiamnestic activity in scopolamine-induced Swiss albino Mus musculus (mouse) memory deficit model assessed as escape latency time at 2 mg/kg, ip administered 30 min prior to scopolamine challenge measured on day 4 by Morris water maze test (reference value: 78.7 +/- 5.7 secs); assay type: functional; settings: route intraperitoneal
Mus musculus [4] = assay: Antiamnestic activity in scopolamine-induced Swiss albino Mus musculus (mouse) memory deficit model assessed as escape latency time at 2 mg/kg, ip administered 30 min prior to scopolamine challenge measured on day 1 by Morris water maze test (reference value: 89.7 +/- 3.8 secs); assay type: functional; settings: route intraperitoneal
Mus musculus [5] = assay: Antiamnestic activity in scopolamine-induced Swiss albino Mus musculus (mouse) memory deficit model assessed as escape latency time at 10 mg/kg, ip administered 30 min prior to scopolamine challenge measured on day 4 by Morris water maze test (reference value: 78.7 +/- 5.7 secs); assay type: functional; settings: route intraperitoneal
Mus musculus [6] = assay: Antiamnestic activity in scopolamine-induced Swiss albino Mus musculus (mouse) memory deficit model assessed as escape latency time at 10 mg/kg, ip administered 30 min prior to scopolamine challenge measured on day 1 by Morris water maze test (reference value: 89.7 +/- 3.8 secs); assay type: functional; settings: route intraperitoneal
Mus musculus [7] = assay: Antiamnestic activity in scopolamine-induced Swiss albino Mus musculus (mouse) memory deficit model assessed as escape latency time at 5 mg/kg, ip administered 30 min prior to scopolamine challenge measured on day 4 by Morris water maze test (reference value: 78.7 +/- 5.7 secs); assay type: functional; settings: route intraperitoneal
Mus musculus [8] = assay: as §1, with “2 to 10” for “25”; assay type: functional, organism-based

`O=C1CC(c2ccc(O)cc2)Oc2ccccc21` (stereo unspecified) [4'-HYDROXY-FLAVANONE] showed an IC50 (Acetylcholinesterase) of 145 nM.

`COc1cc(C2CC(=O)c3ccccc3O2)cc([N+](=O)[O-])c1O` (stereo unspecified) gave an IC50 (Acetylcholinesterase) of 144 nM.

In the case of `O=C(Nc1ccccc1)Oc1ccccc1C1CC(=O)c2ccccc2O1` (stereo unspecified), the IC50 (Acetylcholinesterase) is reported as 39.9 nM.

`O=C(Nc1ccccc1)Oc1ccc(C2CC(=O)c3ccccc3O2)cc1` (stereo unspecified) showed an IC50 (Acetylcholinesterase) of 36.7 nM.

With `COc1cc(OC)c2c(c1)OC(c1cc(OC)c(O)c([N+](=O)[O-])c1)CC2=O` (stereo unspecified) the IC50 (Acetylcholinesterase) was 116 nM.

For `COc1cc(OC)c2c(c1)OC(c1ccc(OC)c(O)c1)CC2=O` (stereo unspecified), the IC50 (Acetylcholinesterase) was 114 nM.

In the case of `COc1cc2c(cc1OC)C(=O)C(CC1CCN(Cc3ccccc3)CC1)C2` (stereo unspecified), the Activity (Mus musculus [1]) is reported as “Active”.

Work on `COc1cc(OC)c2c(c1)OC(c1ccc(O)c(OC)c1)CC2=O` (stereo unspecified) yielded an IC50 (Acetylcholinesterase) of 112 nM.

In the case of `COc1cc(C2CC(=O)c3ccccc3O2)ccc1O` (stereo unspecified), the IC50 (Acetylcholinesterase) is reported as 138 nM.

In the case of `COc1cc(OC)c2c(c1)OC(c1ccc(OC(=O)Nc3ccccc3)cc1)CC2=O` (stereo unspecified), the IC50 (Acetylcholinesterase) is reported as 18.8 nM.

Work on `COc1cc(C2CC(=O)c3ccccc3O2)ccc1OC(=O)Nc1ccccc1` (stereo unspecified) yielded an IC50 (Acetylcholinesterase) of 21.9 nM.

`COc1cc(OO)cc2c1C(=O)CC(c1ccccc1OC(=O)Nc1ccccc1)O2` (stereo unspecified) gave an IC50 (Acetylcholinesterase) of 21.5 nM.

In the case of `COc1cc(OC)c2c(c1)OC(c1ccccc1O)CC2=O` (stereo unspecified), the IC50 (Acetylcholinesterase) is reported as 120 nM.

Compound `COc1ccc(C2CC(=O)c3ccccc3O2)cc1OC(=O)Nc1ccccc1` (stereo unspecified) has an IC50 (Acetylcholinesterase) of 27.6 nM.

Work on `COc1cc(OC)c2c(c1)OC(c1cc(OC)c(O)c(OC)c1)CC2=O` (stereo unspecified) yielded an IC50 (Acetylcholinesterase) of 107 nM.

`COc1cc(OC)c2c(c1)OC(c1cccc(O)c1)CC2=O` (stereo unspecified) was tested, and the IC50 (Acetylcholinesterase) was 119 nM.

`O=C1CC(c2ccccc2O)Oc2ccccc21` (stereo unspecified) [2'-HYDROXY-FLAVANONE] showed an IC50 (Acetylcholinesterase) of 149 nM.

With `COc1cc(OC)c2c(c1)OC(c1cc(OC)c(OC(=O)Nc3ccccc3)c([N+](=O)[O-])c1)CC2=O` (stereo unspecified) the IC50 (Acetylcholinesterase) was 18.2 nM.

With `COc1ccc(C2CC(=O)c3ccccc3O2)cc1O` (stereo unspecified) the IC50 (Acetylcholinesterase) was 140 nM.

With `COc1cc(C2CC(=O)c3ccccc3O2)cc([N+](=O)[O-])c1OC(=O)Nc1ccccc1` (stereo unspecified) the IC50 (Acetylcholinesterase) was 30.5 nM.

Work on `O=C1CC(c2cccc(O)c2)Oc2ccccc21` (stereo unspecified) [3'-HYDROXYFLAVANONE] yielded an IC50 (Acetylcholinesterase) of 147 nM.

For `O=C(Nc1ccccc1)Oc1cccc(C2CC(=O)c3ccccc3O2)c1` (stereo unspecified), the IC50 (Acetylcholinesterase) was 38.8 nM.

Work on `COc1cc(OC)c2c(c1)OC(c1ccc(OC)c(OC(=O)Nc3ccccc3)c1)CC2=O` (stereo unspecified) yielded an IC50 (Acetylcholinesterase) of 16.3 nM.

For `COc1cc(OC)c2c(c1)OC(c1ccc(O)cc1)CC2=O` (stereo unspecified), the IC50 (Acetylcholinesterase) was 118 nM.

For `COc1cc(C2CC(=O)c3ccccc3O2)cc(OC)c1O` (stereo unspecified), the IC50 (Acetylcholinesterase) was 131 nM.

Work on `COc1cc(OC)c2c(c1)OC(c1cc(OC)c(OC(=O)Nc3ccccc3)c(OC)c1)CC2=O` (stereo unspecified) yielded a Time (Mus musculus [2]) of 87.5 s, a Time (Mus musculus [3]) of 72.1 s and a Time (Mus musculus [4]) of 84.3 s. The Time (Mus musculus [5]) was 45.4 s, the Time (Mus musculus [6]) was 83.1 s and the Time (Mus musculus [7]) was 66.4 s. For the same compound, the IC50 (Acetylcholinesterase) was 9.9 nM and the Activity (Mus musculus [8]) was “Active”.

Work on `COc1cc(C2CC(=O)c3ccccc3O2)cc(OC)c1OC(=O)Nc1ccccc1` (stereo unspecified) yielded an IC50 (Acetylcholinesterase) of 19.3 nM.

`COc1cc(OC)c2c(c1)OC(c1ccc(OC(=O)Nc3ccccc3)c(OC)c1)CC2=O` (stereo unspecified) gave an IC50 (Acetylcholinesterase) of 12.8 nM.

`COc1cc(OC)c2c(c1)OC(c1cccc(OC(=O)Nc3ccccc3)c1)CC2=O` (stereo unspecified) was tested, and the IC50 (Acetylcholinesterase) was 19.6 nM.
